Laboratory results as given in patent US20140323296A1, “Pesticide Compositions and Methods for Their Use” (priority 2004, published 2014).
Like-named read-outs stand apart in the source and are kept apart here.

Legend:
Conditions in all cases: in vivo
[1] = test system: tomato plants (Lycopersicon esculentum var. Celebrity Hybrid, NK)
Description: (§1) In general, tomato plants were contacted with three different treatment formulations: (1) the clorothalonil fungicide BRAVO WEATHER STIK with water and surfactant, (2) a fungicide phytotoxicity reducing formulation according to the subject invention, i.e., BRAVO WEATHER STIK/water/sucrose/surfactant, and (3) sucrose/water. An untreated control was also evaluated.
1) Seven week old potted tomato plants (Lycopersicon esculentum var. Celebrity Hybrid, NK) 2) Clorothalonil 47% a.i. (BRAVO WEATHER STIK) made up in a concentration equivalent to 2 pints per 100 gallons water+Organosilicone Surfactant (SILWET L-77) at 3 oz per 100 gallons 3) BRAVO WEATHER STIK at 2 pints per 100 gallons spray mix+SILWET L-77 at 3 oz per 100 gallons+Sucrose at 25 lbs per 100 gallons 4) Sucrose at 25 lbs per 100 gallons+SILWET L-77 at 3 oz per 100 gallons

[2] = test system: Mung Bean plants (Phaseolus aureus); test: IB mitigation of bactericide-fungicide phytotoxicity: KOCIDE with or without sucrose sprayed on potted mung bean plants, leaf russeting, vigor and appearance rating
Description: In general, mung bean plants were contacted with three different treatment formulations: (1) the copper hydroxide bactericide-fungicide KOCIDE with water and surfactant, (2) a bactericide-fungicide phytotoxicity reducing formulation according to the subject invention, i.e., KOCIDE/water/sucrose/surfactant, and (3) sucrose/water. An untreated control was also evaluated.
1) Three week old potted Mung Bean plants (Phaseolus aureus) 2) Copper Hydroxide 20% a.i. (KOCIDE) made up in a concentration equivalent to 10 lbs per 100 gallons spray mix+Organosilicone Surfactant (SILWET L-77) at 3 oz per 100 gallons 3) KOCIDE at 10 lbs per 100 gallons spray mix+Sucrose at 25 lbs per 100 gallons+SILWET L-77 at 3 oz per 100 gallons 4) Sucrose at 25 lbs per 100 gallons+SILWET L-77 at 3 oz per 100 gallons

[3] = test system: tomato plants (Lycopersicon esculentum var. Celebrity Hybrid, NK); test: IA mitigation of insecticide phytotoxicity: KRYOCIDE with or without sucrose sprayed on potted tomato plants, vigor and appearance rating
Description: In general, tomato plants were contacted with three different treatment formulations: (1) the sodium aluminofluoride insecticide KRYOCIDE with water and surfactant, (2) an insecticide phytotoxicity reducing formulation according to the subject invention, i.e., KRYOCIDE/water/sucrose/surfactant, and (3) sucrose/water. An untreated control was also evaluated.
1) Nine week old potted tomato plants (Lycopersicon esculentum var. Celebrity Hybrid, NK) 2) Sodium Aluminofluoride 96% a.i. (KRYOCIDE) made up in a concentration equivalent to 15 lbs per 100 gallons water+Organosilicone Surfactant (Silwet L-77) at 3 oz per 100 gallons 3) KRYOCIDE at 15 lbs per 100 gallons spray mix+SILWET L-77 at 3 oz per 100 gallons spray mix+Sucrose at 25 lbs per 100 gallons spray mix 4) Sucrose at 25 lbs per 100 gallons spray mix+SILWET L-77 at 3 oz per 100 gallons

[4] = test system: tomato plants (Lycopersicon esculentum var. Celebrity Hybrid, NK); test: ID mitigation of fungicide phytotoxicity: ORBIT with or without sucrose sprayed on potted tomato plants, vigor, leaf distortion and appearance rating
Description: as §1, with “propiconazole” for “clorothalonil”, “ORBIT” for “BRAVO WEATHER STIK”, “ORBIT/water/sucrose/surfactant,” for “BRAVO WEATHER STIK/water/sucrose/surfactant,”
1) Nine week old potted tomato plants (Lycopersicon esculentum var. Celebrity Hybrid, NK) 2) Propiconazole 41.8% a.i. (ORBIT) made up in a concentration equivalent to 12 oz per 100 gallons water+Organosilicone Surfactant (SILWET L-77) at 3 oz per 100 gal 3) ORBIT at 12 oz per 100 gallons spray mix+SILWET L-77 at 3 oz per 100 gallons+Sucrose at 25 lbs per 100 gallons 4) Sucrose at 25 lbs per 100 gallons+SILWET L-77 at 3 oz per 100 gallons

| Compound | overall vigor and appearance, Mean/Statistical Rank [1] | overall vigor and appearance, Replication 1 [1] | overall vigor and appearance, Replication 2 [1] | overall vigor and appearance, Replication 3 [1] | overall vigor and appearance, Replication 4 [1] | russeting of leaves and overall vigor and appearance, Mean/Statistical Rank [2] | russeting of leaves and overall vigor and appearance, Replication 1 [2] | russeting of leaves and overall vigor and appearance, Replication 2 [2] | russeting of leaves and overall vigor and appearance, Replication 3 [2] | russeting of leaves and overall vigor and appearance, Replication 4 [2] | overall vigor and appearance, Mean/Statistical Rank [3] | overall vigor and appearance, Replication 1 [3] | overall vigor and appearance, Replication 2 [3] | overall vigor and appearance, Replication 3 [3] | overall vigor and appearance, Replication 4 [3] | overall vigor, leaf distortion and appearance, Mean/Statistical Rank [4] | overall vigor, leaf distortion and appearance, Replication 1 [4] | overall vigor, leaf distortion and appearance, Replication 2 [4] | overall vigor, leaf distortion and appearance, Replication 3 [4] | overall vigor, leaf distortion and appearance, Replication 4 [4] |
| --- | --- | --- | --- | --- | --- | --- | --- | --- | --- | --- | --- | --- | --- | --- | --- | --- | --- | --- | --- | --- |
| OC[C@H]1O[C@@](CO)(O[C@H]2O[C@H](CO)[C@@H](O)[C@H](O)[C@H]2O)[C@@H](O)[C@@H]1O [Sucrose] | 10.00 b | 10 | 10 | 10 | 10 | 10.00 b | 10 | 10 | 10 | 10 | 9.75 b | 10 | 9 | 10 | 10 | 10.00 c | 10 | 10 | 10 | 10 |
| Clorothalonil [BRAVO WS] | 5.25 a | 5 | 5 | 6 | 5 | – | – | – | – | – | – | – | – | – | – | – | – | – | – | – |
